# Results published in patent US12024721B2, “Method of differentiating human pluripotent stem cells to podocytes” (Wisconsin Alumni Research Foundation, priority 2017, dated 2024).
# Key:
# [1] = test system: BMP-induced SMAD1/5/8 phosphorylation; assay: Phosphorylated SMAD Western blot after dorsomorphin treatment of differentiating cells; assay type: cell-based, human; settings: added from days 1-3 of differentiation; P-SMAD at day 3; 0 to 10 μM tested
# Procedure: Singularized IMR90-4 hPSCs were seeded on 12-well plates coated with Matrigel®, Synthemax® or vitronectin and expanded for 3 days in mTeSR®1. Podocyte differentiation was initiated with treatment using 6 μM CHIR (CHIR99021) for 48 h in PM1 followed by treatment with different combinations of 0.1 μM or 1 μM RA, 50 ng/mL BMP7 and 50 ng/mL FGF2 from day 2 to day 6 in PM2. […] (D, E) Expression of phosphorylated SMAD was assessed by Western blot after cells were treated with dorsomorphin (0 μM to 10 μM) from day 1 to day 3 or from day 3 to day 4. […] Data were collected from three independent replicates and are plotted as mean±SEM. *p<0.05. ***p<0.001. […] Cells were dissociated with Accutase® and rinsed with PBS twice before being lysed with RIPA (ROCKLAND) in the presence of 1% Halt Protease and Phosphatase Inhibitor Cocktail (Pierce). Protein concentration was determined by a BCA assay kit (Thermo Fisher) according to manufacturer's instructions. Samples containing 30 μg of total protein were loaded onto pre-cast 10% Tris-Glycine SDS/PAGE gels (Invitrogen) under denaturing conditions and transferred to a nitrocellulose membrane. After blocking with 5% non-fat milk in TBST, the membrane was incubated with primary antibody (Table 1) overnight at 4° C. […]
# [2] = test system: IMR90-4 iPSC-derived podocytes; assay: Apoptosis assay: dead cells by trypan blue after TGF-β1; assay type: cell-based, human; settings: 5 or 50 ng/mL, 24 hr, day 16 podocytes; control 2%
# Procedure: (§1) At day 16, cells were treated with 500 ng/mL Ang II for 6 hr and phalloidin staining was used to assess changes in cytoskeletal structure. White arrows indicate the cells with peripheral F-actin. (B) More than 200 cells over 15 images were analyzed and the percentage of cells with peripherally-organized actin was calculated for control and Ang II-treated cells. Data are presented as mean percentage±SEM of three independent experiments over 15 images. Scale bars, 100 μm. (C) At day 16, cells were treated with 5 ng/mL and 50 ng/mL TGF-β1 for 24 hr. Detached cells were collected from the medium and combined with Accutase®-dissociated cells from the substrate. Cells were treated with trypan blue and the numbers of cells incorporating and excluding trypan blue were counted on a hemocytometer. Percentage of dead cells was calculated as the number of cells that incorporated trypan blue divided by the total cell number. […]
# (§2) Podocytes uptake albumin via endocytosis and degrade albumin in lysosomes^52,53. We assessed the ability of day 16 iPSC-derived podocytes to endocytose Alexa Fluor 555-labeled albumin in a temperature-dependent manner. […]
# (§3) Differentiated podocytes at day 16 were treated with 500 ng/ml Ang II for 6 hr or […] TGF-β1 for 24 hr. […] The cells treated with TGF-β1 after 24 hr were assessed by counting dead cells with trypan blue exclusion.
# [3] = test system: IMR90-4 iPSC-derived podocytes; assay: Contractility assay: actin reorganization (phalloidin staining) after Ang II; assay type: cell-based, human; settings: 500 ng/mL, 6 hr, day 16 podocytes; control about 20%
# Procedure: as §1, §2, §3
# hPSCs [4] = assay: Primitive streak induction of hPSCs by Wnt activation (brachyury immunofluorescence / flow cytometry); assay type: cell-based, human
# Procedure: Thus, as a first step toward differentiating hPSCs into podocytes, induced hPSCs (iPSCs) were seeded on a Matrigel®-coated surface at a density of ˜2×10^4 cells/cm^2 in mTeSR®1. After 3 days of expansion to a density of 6×10^4 cells/cm^2, the hPSCs were treated with 6 μM CHIR99201 for 48 hr in serum-free and albumin-free podocyte medium 1 (PM1: DMEM/F12, 1% MEM-NEAA, 0.5% GlutaMAX, 0.1 mM β-mercaptoethanol) (FIG. 1A). […] After 48 hr CHIR99201 treatment in PM1, the medium was switched to serum-free podocyte medium 2 (PM2: human endothelial serum-free medium (hESFM), 2% B-27®) and cultured to day 16. The kinetics of primitive streak induction were assessed by immunofluorescence and qRT-PCR. […] At day 0, differentiation was initiated by treating cells with 6 μM CHIR99021 (Selleckchem) in podocyte medium 1 (PM1): DMEM/Ham's F12 (Thermo Fisher), 100×MEM nonessential amino acids (Thermo Fisher), 200× GlutaMAX (Thermo Fisher), and 0.1 mM β-mercaptoethanol (Sigma) for 2 days. After 48 hr, medium was changed to podocyte medium 2 (PM2): human Endothelial Serum-Free Medium (hESFM) (Thermo Fisher) supplemented with 50× B-27®. […] Cells were stained with primary and secondary antibodies diluted in 0.5% BSA plus 0.1% Triton-X 100 as described.^34 Data were collected on a FACS Caliber flow cytometer (Beckton Dickinson) and analyzed using FlowJo®. […]
# hPSCs [5] = settings: 6 μM, undifferentiated hPSCs, serum-free and albumin-free medium, after 24 hours; cited from earlier work
# IMR90-4 hPSCs = assay: WT1 expression at day 6 by Western blot after treatment with BMP7, RA, FGF2 from day 2 to day 6; assay type: cell-based, human; settings: treatment day 2 to day 6 in PM2
# Procedure: FIGS. 3A-3L Wnt signaling activation alone is sufficient to differentiate hPSCs into nephron progenitor cells. (A) Schematic of podocyte differentiation factor identification. Singularized IMR90-4 hPSCs were seeded on 12-well plates coated with Matrigel®, Synthemax® or vitronectin and expanded for 3 days in mTeSR®1. Podocyte differentiation was initiated with treatment using 6 μM CHIR (CHIR99021) for 48 h in PM1 followed by treatment with different combinations of 0.1 μM or 1 μM RA, 50 ng/mL BMP7 and 50 ng/mL FGF2 from day 2 to day 6 in PM2. (B) Cells at day 6 were assessed by Western blot for the expression level of WT1. (C) Expression level was quantified via Image J. The expression was first normalized to β-actin and then compared to WT1 expression in the absence of FGF2, RA and BMP7. (D, E) Expression of phosphorylated SMAD was assessed by Western blot after cells were treated with dorsomorphin (0 μM to 10 μM) from day 1 to day 3 or from day 3 to day 4. (F, G) Expression of BMP7 at day 1 and day 2 was verified by immunofluorescence and Western blot of cell lysate. (H, I) Cells were differentiated in the presence or absence of 1 μM dorsomorphin treatment from day 1 to day 3 and at day 16 were assessed for expression of PAX2 and WT1 by flow cytometry. Data were collected from three independent replicates and are plotted as mean±SEM. *p<0.05. ***p<0.001. […]
molecule,measurement,setting,value
c1cc(-c2cnn3cc(-c4ccc(OCCN5CCCCC5)cc4)cnc23)ccn1 [dorsomorphin],dorsomorphin concentration at which SMAD phosphorylation was completely inhibited,[1],higher than 5 μM
TGF-β1: induces cell death in primary and immortalized podocytes,percentage of dead cells (trypan blue uptake),[2],15%
"angiotensin II [Ang II, induces podocyte damage by altering cytoskeletal structure and inducing contractility]",percentage of cells with peripheral actin,[3],Over 50%
Cc1c[nH]c(-c2cnc(NCCNc3ccc(C#N)cn3)nc2-c2ccc(Cl)cc2Cl)n1 [CHIR99021],"ability alone to direct hPSC lines into intermediate mesoderm, nephron progenitors and mature podocytes","hPSCs [4]; 6 μM alone, podocyte permissive medium, three different hPSC lines",sufficient
same,cells expressing the primitive streak marker brachyury (positive population),"hPSCs [4]; 6 μM, 24 hr treatment, PM1, iPSCs on Matrigel",~100%
same,population expressing primitive streak markers (prior study),hPSCs [5],uniform population of cells expressing primitive streak markers
"FGF2: fibroblast growth factor, exogenous growth factor",effect on WT1 expression in the hPSC-derived podocytes,IMR90-4 hPSCs,diminished
"BMP7: bone morphogenetic protein, exogenous growth factor (protein, UniProt P18075 293-431, looked up) Bone morphogenetic protein 7: STGSKQRSQNRSKTPKNQEALRMANVAENSSSDQRQACKKHELYVSFRDLGWQDWIIAPEGYAAYYCEGECAFPLNSYMNATNHAIVQTLVHFINPETVPKPCCAPTQLNAISVLYFDDSSNVILKKYRNMVVRACGCH",effect on WT1 expression in the hPSC-derived podocytes,IMR90-4 hPSCs,diminished
